One series deals with T1, Autotaxin (Rattus norvegicus, UniProt Q64610).
T1 construct: from tissue; host or cells: SD rats in vivo; plasma sampled after a single oral dose
As to the kind of experiment: Pharmacodynamics: LPA 18:2 inhibition in plasma of SD rats after oral dose. The following applies: single oral dose, LPA18:2 inhibition vs plasma concentration of compound, read-out: In vivo rat IC50 (LPA 18:2) (converted). An excerpt:
(§1) The pharmacokinetics and pharmacodynamics of test compounds after a single oral dose were investigated in SD rats, Beagle dog and Cynomolgus monkey. SD Rats (200-250 g) were purchased from Beijing Vital River Laboratory Animal Technology Co., Ltd. Male Beagle Dog, 6-9 kg, were purchased from Beijing Mashall. Male Cynomolgus monkeys, 3-5 kg, were purchased from Suzhou Xishan Zhongke Drugs Research and Development Co., Ltd. Following arrival, the animals were acclimated for 7 days in individual cages maintained at ambient temperature, 34 to 68% relative humidity, and 12-h light/dark cycles. Just prior to dose administration the rats were fasted overnight with free access to water. Animals were given 10 mL/kg of formulated compound in 0.5% methylcellulose (MC) by oral gavage, and the animals were fed four hours after dosing. The animals were manually restrained at the designated time points (pre-dose, 0.5, 1, 3, 6, 9, 12, and 24 h post-dose) to collect blood. Approximately 120 μL of blood was collected via orbital sinus into K2EDTA tubes. The blood samples were centrifuged at 5000 rpm for 10 min at 4° C. to obtain plasma samples.
Autotaxin is a secreted phosphodiesterase that converts lysophosphatidylcholine (LPC) into lysophosphatidic acid (LPA), and LPA 18:2 formation was used to evaluate the efficacy of autotaxin inhibitors. Therefore, the LPA 18:2 formation in response to drug administration was analyzed in each time point to assess the pharmacodynamics of test compounds. To determine the LPA18:2 concentration in study plasma, a 10× calibration standard of LPA 18:2 were prepared by serial dilution in butyl alcohol: 20000, 10000, 5000, 2000, 1000, 500, 200, 100, 50, 20, and 10 ng/mL. 3 μL of calibration standard solution was added into 27.0 μL of blank plasma in 1.5-mL microcentrifuge tubes to generate 1× calibration standards. The 30.0 μL of standards or study plasma was added into 1.5-mL microcentrifuge tubes. 200 μL of butyl alcohol (containing 25.0 ng/mL LPA17:0 for internal control) was added into each 1.5-mL microcentrifuge tube containing study plasma or calibration standards. After vortexing for 1 minute and centrifuging at 10000 rpm for 10 min, 180 μL of supernatant was transferred into a 96-well plate and the LPA18:2 concentration in the plasma was quantitated using LC/MS/MS together with standards. Briefly, 8 μL of the solutions were injected for LC-MS/MS analysis using an ACQUITY UPLC BEH C18 column (2.1×50 mm, 1.7 μm) with mobile phase A [20 mM NH4OAC in water (0.1% FA)] and phase B [5 mM NH4OAC in water/0.2% FA in ACN=5:95]. Mass spectrometer parameters optimization for LPA18:2 were performed by infusing standard diluted at 1 μg/mL in butyl Alcohol directly in the ionization source, at a flow of 10 μL/min. Deprotonated molecular ion at m/z 433.2 ([M−H]−) for LPA18:2, and abundant product ion at m/z 152.8 for LPA18:2 were obtained. Quantitative data were acquired in multiple reaction monitoring (MRM) negative electrospray ionization mode
The percentage of LPA18:2 inhibition was plotted against the corresponding concentration of compound and the IC50 was calculated through non-linear regression fitting.

The nature of series [1]: Pharmacokinetics after a single oral dose in SD rats. It counts as in vivo. The note with it: Sprague-Dawley, rat, plasma, single oral dose in 0.5% methylcellulose; for half-life: read-out: T½ (converted).
From the text: as §1
(§2) To determine the compound concentration in the plasma samples, a 10× calibration standard of compound were prepared by serial dilution in DMSO: 20000, 10000, 5000, 2000, 1000, 500, 200, 100, 50, 20, and 10 ng/mL. 3 μL of calibration standard solution was added into 27.0 μL of blank plasma in 1.5-mL microcentrifuge tubes to generate 1× calibration standards. The 30.0 μL of standards or study plasma was mixed with 200 μL of acetonitrile (containing 5 ng/mL verapamil for internal control) in a 1.5-mL microcentrifuge tube. After vertexing for 1 minute and centrifuging at 10000 rpm for 10 min, 180 μL of supernatant was transferred into a 96-well plate and the compound concentration in the plasma was quantitated using LC/MS/MS together with standards. Briefly, 1 μL of the solutions were injected for LC-MS/MS analysis using an Agilent Zorbax C18 column (50×2.1 mm, 3.5 μm) with mobile phase A [5 mM NH4Ac (0.1% FA)] and phase B [Methanol (0.1% FA)]. Mass spectrometer parameters optimization for compound was performed by infusing standard diluted at 1 μg/mL in water/methanol (1/1, v/v) directly in the ionization source at a flow of 10 μL/min. Quantitative data were acquired in multiple reaction monitoring (MRM) positive APCI mode.

The nature of series [2]: Metabolic stability in human hepatocytes. The format is in vitro ADME. The note with it: cryopreserved human hepatocytes 0.5 million/mL, compound 1 μM. Here is the method: The metabolic stability was examined in cryopreserved human hepatocytes. Compound (1 μM) was mixed with human hepatocytes at 0.5 million/mL, and a small aliquot was taken at 0, 15, 30, 60 and 90 minutes for LC/MS/MS analysis. Intrinsic clearance and half-time were calculated.

Series [3] is described as follows: Pharmacokinetics in beagle dogs. The format is in vivo. The note with it: male, dog, plasma, po, P.O. (1 mg/kg).
From the text: as §1, §2

A short description of series [4]: Pharmacokinetics in cynomolgus monkeys. The format is in vivo. The note with it: male, cynomolgus monkey, plasma, po, P.O. (1 mg/kg).
From the text: as §1, §2

In the case of `CCc1nn2cc(F)c(N3CC4(CN(C(=O)[C@H]5CCOC5)C4)C3)cc2c1N(C)c1nc(-c2ccc(F)cc2)c(C#N)s1` [Example 102, 2-[[2-ethyl-6-fluoro-5-[2-[(3S)-tetrahydrofuran-3-carbonyl]-2,6-diazaspiro[3.3]heptan-6-yl]pyrazolo[1,5-a]pyridin-3-yl]-methyl-amino]-4-(4-fluorophenyl)thiazole-5-carbonitrile], the 50% inhibitory concentration (IC50) (as a rule, the concentration at which inhibition is half-maximal) at Autotaxin was 8.85 nM. Besides, in series [1], the AUC (usually the area under the concentration-time curve, a measure of exposure) turned out to be 7520 ± 498 ng·h/mL; the peak concentration (Cmax) (usually the highest concentration seen after dosing) was determined as 732 ± 95 ng/mL; the half-life is 5.53 ± 0.2 h. For the same molecule, the “metabolic stability (halftime in minutes), Human” value (“metabolic stability” below) in series [2] was 76.6 min. Further, in series [3], the exposure (AUC) turned out to be 2190 ± 325 ng·h/mL; the Cmax was found to be 192 ± 26 ng/mL; the bioavailability (commonly the share of a dose that reaches the circulation, judged against a reference dose that is usually intravenous) turned out to be 33.9 ± 5%; the half-life was 20.4 ± 6.1 h.
With `CCc1nn2cc(F)c(N3CCN(CC(=O)N4CC(O)C4)CC3)cc2c1N(C)c1nc(-c2ccc(F)cc2)c(C#N)s1` [Example 101, 2-[[2-ethyl-6-fluoro-5-[4-[2-(3-hydroxyazetidin-1-yl)-2-oxo-ethyl]piperazin-1-yl]pyrazolo[1,5-a]pyridin-3-yl]-methyl-amino]-4-(4-fluorophenyl)thiazole-5-carbonitrile], on Autotaxin, the half-inhibitory concentration (IC50) is 8.64 nM. In addition, in series [1], the AUC came out at 2050 ± 884 ng·h/mL, the Cmax came to 268 ± 76 ng/mL and the half-life is 3.29 ± 0.25 h. For the same molecule, in series [4], the area under the curve (AUC) was 1380 ± 904 ng·h/mL, the Cmax was determined as 239 ± 119 ng/mL, the bioavailability came to 35.6 ± 22% and the half-life is 2.49 ± 0.54 h. Further, the “metabolic stability” value in series [2] was over 216.8 min. Besides, in series [3], the area under the curve (AUC) was determined as 4020 ± 549 ng·h/mL, the highest concentration (Cmax) turned out to be 425 ± 68 ng/mL, the bioavailability is 36.1 ± 4.9% and the half-life is 4.69 ± 0.17 h.
Turning to `CCc1nc2c(C)cc(N3CCN(CC(=O)N4CC(O)C4)CC3)cn2c1N(C)c1nc(-c2ccc(F)cc2)c(C#N)s1` [GLPG1690], the IC50 on Autotaxin was 48.3 nM. Moreover, in series [1], the AUC stood at 1260 ± 209 ng·h/mL, the highest level (Cmax) was 889 ± 173 ng/mL and the half-life was 3.15 ± 1.8 h. In series [4], this molecule had an AUC of 244 ± 118 ng·h/mL, a Cmax of 72.6 ± 38 ng/mL, a bioavailability of 4.51 ± 2.1% and a half-life of 1.82 ± 0.63 h. Moreover, the “metabolic stability” value in series [2] worked out at 117.9 min. In addition, in series [3], the exposure (AUC) was found to be 5760 ± 672 ng·h/mL, the highest level (Cmax) was 1130 ± 229 ng/mL, the bioavailability turned out to be 66.2 ± 7.5% and the half-life was 3.04 ± 0.77 h.
Consider `CCn1nc2ncc(N3CC4(CN(C(=O)C5CCOCC5)C4)C3)cc2c1N(C)c1nc(-c2ccc(F)cc2)c(C#N)s1` [Compound 118, 2-((2-ethyl-5-(6-(tetrahydro-2H-pyran-4-carbonyl)-2,6-diazaspiro[3.3]heptan-2-yl)-2H-pyrazolo[3,4-b]pyridin-3-yl)(methyl)amino)-4-(4-fluorophenyl)thiazole-5-carbonitrile], for which, on Autotaxin, the IC50 is 12.5 nM. Moreover, in series [1], the AUC was 2620 ± 1920 ng·h/mL, the maximum concentration (Cmax) came to 477 ± 250 ng/mL and the half-life was 3.85 ± 1.3 h. In series [4], this molecule showed an AUC of 153 ± 10 ng·h/mL, a Cmax of 28 ± 3 ng/mL, a bioavailability of 2.9 ± 0.19% and a half-life of 2.63 ± 0.85 h. Also, the “metabolic stability” value in series [2] was over 216.8 min. In series [3], this molecule gave an area under the curve (AUC) of 900 ± 305 ng·h/mL, a maximum concentration (Cmax) of 165 ± 40 ng/mL, a bioavailability of 40.7 ± 14% and a half-life of 3.99 ± 0.89 h.
